# Key:
# [1] = not given; remark: listed apart in the source
Structure (SMILES),logD (pH 13.0),further results
Oc1cccc(Br)c1,–,logD (pH 1.0): 2.59
O=C(O)c1cccc(Cl)c1,–,logD (pH 1.0): 2.51
Oc1ccc(I)cc1,–,logP [1]: 2.82
O=C(O)c1ccc(F)cc1,–,logP [1]: 1.99
Nc1cccc([N+](=O)[O-])c1,1.43,–
Nc1ccc(Cl)cc1,1.8,–
O=C(O)c1cccc(I)c1,–,logP [1]: 3
Cc1ccccc1N,1.44,–
Nc1cccc(I)c1,2.86,–
Cc1cccc(N)c1,1.49,–
Nc1ccc(Br)cc1,2,–
